Results taken from patent US4214091A, “Antibiotic No. 2-200 and process for producing thereof” (Chugai Seiyaku Kabushiki Kaisha, priority 1977, dated 1980).
In brackets after ≈: the same amount, converted by molar mass.

Key:
Experiment in all cases: MIC, GAM agar, anaerobic
Format in all cases: cell-based
[1] = system: Bacteroides fragilis V-6; conditions: V6, GAM agar, anaerobic, 37° C., 40 hours, inoculum 10^6/ML, read-out: Minimum inhibitory concentration (MIC)
Description: (§1) Minimum inhibitory concentration (MIC) for gram
(§2) Note: incubated at 37° C. for 40 hours on GAM agar medium (product
(§3) of Nippon Seiyaku) using anaerobic incubator. Inoculated with 10^6

[2] = system: Bacteroides fragilis V-7; conditions: V7, GAM agar, anaerobic, 37° C., 40 hours, inoculum 10^6/ML, read-out: Minimum inhibitory concentration (MIC)
Description: as §1, §2, §3

[3] = system: Bacteroides fragilis V-8; conditions: V8, GAM agar, anaerobic, 37° C., 40 hours, inoculum 10^6/ML, read-out: Minimum inhibitory concentration (MIC)
Description: as §1, §2, §3

[4] = system: Fusobacterium glutinosum 1006; conditions: 37° C., 40 hours, inoculum 10^6/ML, read-out: Minimum inhibitory concentration (MIC)
Description: as §1, §2, §3

MIC [1]: 100 µg/mL (≈ 227 µM) | MIC [2]: 25 µg/mL (≈ 56.8 µM) | MIC [3]: > 100 µg/mL | MIC [4]: 6.25 µg/mL (≈ 14.2 µM)
SMILES: O=C(Cn1cnnn1)N[C@@H]1C(=O)N2C(C(=O)O)=C(CSc3nncs3)CS[C@H]12 [Ceftezole, reference compound]
